Literature values as cited in PubChem BioAssay AID1259409 (Chemical Carcinogenesis Research Information System (CCRIS), 2018).
Values joined by “and” are separate entries in the source; they are usually repeats but may differ in a detail not shown here. Identical values can stand only once.

System: rodent chemically induced tumor inhibition, incidence and multiplicity
Test: CCRIS tumor inhibitor studies
Settings: Carcinogen: 7,12-DIMETHYLBENZ[A]ANTHRACENE, 57-97-6, Route [Inhibitor]: DERMAL, Species: MOUSE, Target Tissue: Type of Lesion: SKIN: PAPILLOMA, Promoter: 12-O-TETRADECANOYLPHORBOL-13-ACETATE, 16561-29-8

Question: What does the source list for `CC1=C(/C=C/C(C)=C/C=C/C(C)=C/C(=O)O)C(C)(C)CCC1`?
Answer: tumour outcome (control, treated, inhibition, significance) (Dose [Inhibitor]: 17 NMOL IN 0.2 ML ACETONE 1 HR PRIOR TO EACH PROMOTER DOSE BEGINNING AT WEEK 10 OF PROMOTION AND CONTINUING FOR DURATION, Strain/Sex: CD-1/FEMALE, Dose [Carcinogen]: 200 NMOL IN 0.2 ML ACETONE ONCE): 100%, 95%, 5%, p>0.3; tumour outcome (control, treated, inhibition, significance) (Dose [Inhibitor]: 17 NMOL IN 0.2 ML ACETONE 1 HR PRIOR TO EACH PROMOTER DOSE FOR 12 WK (STUDY DURATION: 14 WK), Strain/Sex: SENCAR/FEMALE, Dose [Carcinogen]: 200 NMOL IN 0.2 ML ACETONE ONCE): 100%, 87%, 13%, not calculated; tumour outcome (control, treated, inhibition, significance) (Dose [Inhibitor]: 17 NMOL IN 0.2 ML ACETONE 1 HR PRIOR TO EACH PROMOTER DOSE FOR 20 WK (STUDY DURATION: 22 WK), Strain/Sex: CD-1/FEMALE, Dose [Carcinogen]: 200 NMOL IN 0.2 ML ACETONE ONCE): 94%, 62%, 34%, not calculated; tumour outcome (control, treated, inhibition, significance) (Dose [Inhibitor]: 17 NMOL IN 0.2 ML ACETONE 1 HR PRIOR TO EACH PROMOTER DOSE FOR DURATION OF STUDY (STUDY DURATION: 27 WK), Strain/Sex: CD-1/FEMALE, Dose [Carcinogen]: 200 NMOL IN 0.2 ML ACETONE ONCE): 100%, 60%, 40%, p<0.02; tumour outcome (control, treated, inhibition, significance) (Dose [Inhibitor]: 17 NMOL IN 0.2 ML ACETONE 1 HR PRIOR TO EACH PROMOTER DOSE FOR FIRST 10 WK OF PROMOTION (STUDY DURATION: 27 WK), Strain/Sex: CD-1/FEMALE, Dose [Carcinogen]: 200 NMOL IN 0.2 ML ACETONE ONCE): 100%, 90%, 10%, p>0.3; tumour outcome (control, treated, inhibition, significance) (Dose [Inhibitor]: 17 NMOL IN 0.2 ML ACETONE 2/WK 1 HR BEFORE EACH PROMOTER APPLICATION STARTING 14 D AFTER CARCINOGEN APPLICATION AND CONT, Strain/Sex: CD-1/FEMALE, Dose [Carcinogen]: 0.2 UMOL IN 0.2 ML ACETONE ONCE): 98%, 42%, 57%, not calculated; tumour outcome (control, treated, inhibition, significance) (Dose [Inhibitor]: 17 NMOL IN 0.2 ML ACETONE 2/WK 1 HR BEFORE EACH PROMOTER APPLICATION STARTING 14 D AFTER CARCINOGEN APPLICATION AND CONT, Strain/Sex: CD-1/FEMALE, Dose [Carcinogen]: 0.2 UMOL ONCE): 100%, 80%, 20%, not significant; tumour outcome (control, treated, inhibition, significance) (Dose [Inhibitor]: 17 NMOL IN 0.2 ML ACETONE 2/WK 24 HR AFTER EACH PROMOTER TREATMENT STARTING 14 D AFTER CARCINOGEN TREATMENT AND CONTINUI, Strain/Sex: CD-1/FEMALE, Dose [Carcinogen]: 0.2 UMOL IN 0.2 ML ACETONE ONCE): 98%, 96%, 2%, not significant; tumour outcome (control, treated, inhibition, significance) (Dose [Inhibitor]: 34 NMOL IN 0.2 ML ACETONE 2/WK 1 HR BEFORE EACH PROMOTER APPLICATION STARTING 14 D AFTER CARCINOGEN APPLICATION AND CONT, Strain/Sex: CD-1/FEMALE, Dose [Carcinogen]: 0.2 UMOL IN 0.2 ML ACETONE ONCE): 90%, 55%, 39%, not calculated and 90%, 48%, 47%, not calculated; tumour outcome (control, treated, inhibition, significance) (Dose [Inhibitor]: 68 NMOL IN 0.2 ML ACETONE 2/WK 1 HR BEFORE EACH PROMOTER APPLICATION STARTING 14 D AFTER CARCINOGEN APPLICATION AND CONT, Strain/Sex: CD-1/FEMALE, Dose [Carcinogen]: 0.2 UMOL IN 0.2 ML ACTEONE ONCE): 95%, 53%, 44%, not calculated
